CC(=O)Nc1ccc(O)cc1
Settings | solubility (mole fraction)
in acetone, 292.95 K | 0.0327
in acetone, 302.85 K | 0.0411
in acetone, 311.95 K | 0.0534
in acetone, 320.65 K | 0.068
in ethanol, 295.15 K | 0.0549
in ethanol, 305.35 K | 0.0662
in ethanol, 314.15 K | 0.0737
in ethanol, 322.15 K | 0.0898
in ethanol, 332.95 K | 0.116
in ethanol, 341.25 K | 0.141
in ethanol, 350.05 K | 0.18
in ethanol, 360.15 K | 0.216
in isopropanol, 293.65 K | 0.0415
in isopropanol, 304.05 K | 0.0509
in isopropanol, 313.05 K | 0.0604
in isopropanol, 320.25 K | 0.0696
in isopropanol, 325.35 K | 0.0787
in isopropanol, 330.25 K | 0.0876
in isopropanol, 336.15 K | 0.105
in isopropanol, 343.45 K | 0.121
in isopropanol, 348.15 K | 0.136
in isopropanol, 353.05 K | 0.152
in isopropanol, 356.15 K | 0.159
in methanol, 293.45 K | 0.0594
in methanol, 303.55 K | 0.073
in methanol, 313.95 K | 0.0906
in methanol, 323.35 K | 0.111
in methanol, 330.95 K | 0.133
in methanol, 341.55 K | 0.175
in methanol, 354.15 K | 0.229
in n-butanol, 293.05 K | 0.0364
in n-butanol, 302.95 K | 0.0439
in n-butanol, 312.55 K | 0.0526
in n-butanol, 323.05 K | 0.0659
in n-butanol, 332.55 K | 0.0792
in n-butanol, 343.65 K | 0.099
in n-butanol, 353.15 K | 0.126
in n-butanol, 362.65 K | 0.152
in n-pentanol, 303.55 K | 0.038
in n-pentanol, 313.85 K | 0.0468
in n-pentanol, 323.65 K | 0.0571
in n-pentanol, 333.65 K | 0.073
in n-pentanol, 343.55 K | 0.0893
in n-pentanol, 353.75 K | 0.108
in n-pentanol, 361.55 K | 0.129
in n-propanol, 293.05 K | 0.0412
in n-propanol, 302.95 K | 0.0501
in n-propanol, 312.55 K | 0.061
in n-propanol, 322.55 K | 0.0735
in n-propanol, 332.25 K | 0.093
in n-propanol, 342.15 K | 0.117
in n-propanol, 351.25 K | 0.142
in n-propanol, 359.15 K | 0.165
